Data reported in patent US5573908A, “Adrenergic receptor as a proto-oncogene” (Duke University, priority 1993, dated 1996).
Values joined by “and” are separate entries in the source; they are usually repeats but may differ in a detail not shown here. Identical values can stand only once.

Molecular target: T1, α1B ADR mutant (Mesocricetus auratus, UniProt P18841, A293L/K290H/R288K)
T1 construct: expressed in transfected cells; host or cells: RAT-1 fibroblasts (vector pZIP-NeoSV(X)1), focus-derived, G418-selected lines
T1 sequence (P18841 1-515 R288K/K290H/A293L): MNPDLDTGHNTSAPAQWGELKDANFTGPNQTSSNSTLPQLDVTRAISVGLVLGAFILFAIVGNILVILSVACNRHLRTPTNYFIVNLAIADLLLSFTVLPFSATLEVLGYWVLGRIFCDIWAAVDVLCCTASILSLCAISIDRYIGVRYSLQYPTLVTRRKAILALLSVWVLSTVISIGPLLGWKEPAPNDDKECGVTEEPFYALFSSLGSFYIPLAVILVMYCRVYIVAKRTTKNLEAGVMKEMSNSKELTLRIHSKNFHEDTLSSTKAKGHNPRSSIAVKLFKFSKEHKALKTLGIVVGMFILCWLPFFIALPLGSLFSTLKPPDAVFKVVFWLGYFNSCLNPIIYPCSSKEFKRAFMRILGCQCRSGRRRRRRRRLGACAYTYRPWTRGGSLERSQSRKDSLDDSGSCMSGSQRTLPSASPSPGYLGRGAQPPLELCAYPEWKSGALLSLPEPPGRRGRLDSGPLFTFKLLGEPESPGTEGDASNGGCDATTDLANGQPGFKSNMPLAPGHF
Assay: Ligand binding on membranes of RAT-1 fibroblast cell lines expressing the α1B ADR mutant
Set-up: species or system hamster
Conditions: competition with 100 pM [125I] HEAT; membranes, two clones; read-out: NE Ki
Method: In Table 3, RAT-1 fibroblast cell lines transfected with expression vector alone or derived from transformed foci (α1B ADR or α1B ADR mutant) were selected with G418 (300 μg/ml). Ligand binding was performed on membranes prepared from two clones of each in accordance with known techniques (S. Cotecchia et al., Life Sci. 37, 2389 (1986)). For saturation binding analysis, [^125 ] HEAT concentrations ranged from 10 to 500 pM, nonspecific binding was determined using 1 μM prazosin; in competition experiments, the radioligand concentration was 100 pM. Ligand binding parameters were determined using computerized iterative nonlinear regression analysis (P. Munson, Methods in Enzymol. 92, 5432 (1983)). For assessment of receptor coupling to PI hydrolysis, cells were plated in 30 mm dishes, and labeled overnight with 3 μCi/ml of myo-[2-^3 II(N)]-inositol (1Ci=37 GBq; NEN Research Products) in DMEM containing 3.3% FBS in accordance with known techniques (S. Cotecchia et al., Proc. Natl. Acad. Sci. USA 87, 2896 (1990)). After 40 minute stimulation of cells with 10 μM norepinephrine (NE), inositol phosphates were extracted, and separated on AG 1-X8 anion exchange columns (BioRad Labs) in accordance with known techniques (S. Cotecchia et al., Proc. Natl. Acad. Sci. USA 87, 2896 (1990)). Total inositol phosphates were eluted with 1M ammonium formate/0.1M formic acid. Rmax indicates the percentage increase of total labeled inositol phosphates over basal levels following NE stimulation.

## NC[C@H](O)c1ccc(O)c(O)c1 [NE, norepinephrine]
  Ki: 42 nM and 47 nM
